In patent US5496844A, “Indole derivatives” (Otsuka Pharmaceutical Factory, Inc., priority 1992, dated 1996):

molecular target: T1, rat uterus cytoplasm estrogen receptor (Rattus norvegicus, UniProt P06211); assay: inhibition of specific binding of [3H]-moxestrol to rat uterus cytoplasm estrogen receptor; design: species or system rat (female SD); details: relative to moxestrol as control compound; rat uterus cytoplasm fraction; 4° C., 16 hours; DCC method
T1 construct: the homogenate was centrifuged to give a cytoplasm fraction; from tissue; host or cells: uterus of female SD rats aged 3 to 4 weeks, cytoplasm fraction
T1 sequence (P06211 1-600): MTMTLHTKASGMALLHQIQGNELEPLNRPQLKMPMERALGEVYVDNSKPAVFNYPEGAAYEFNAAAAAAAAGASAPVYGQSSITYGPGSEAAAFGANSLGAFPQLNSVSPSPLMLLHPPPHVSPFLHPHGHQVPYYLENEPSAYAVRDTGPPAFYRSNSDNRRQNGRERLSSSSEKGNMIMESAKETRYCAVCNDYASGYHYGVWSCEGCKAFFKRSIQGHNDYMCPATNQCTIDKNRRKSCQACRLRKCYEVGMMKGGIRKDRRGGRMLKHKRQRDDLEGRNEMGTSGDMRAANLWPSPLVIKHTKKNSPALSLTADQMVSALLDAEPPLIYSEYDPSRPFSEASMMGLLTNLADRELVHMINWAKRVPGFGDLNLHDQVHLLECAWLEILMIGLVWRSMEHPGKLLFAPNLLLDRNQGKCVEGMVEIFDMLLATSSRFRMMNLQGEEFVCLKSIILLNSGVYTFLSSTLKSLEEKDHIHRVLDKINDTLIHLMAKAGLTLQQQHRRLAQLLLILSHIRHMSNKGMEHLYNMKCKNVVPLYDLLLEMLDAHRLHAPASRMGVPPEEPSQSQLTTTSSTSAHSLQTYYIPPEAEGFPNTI
Experimental: Test for inhibitory activity against the specific binding of [^3 H]-moxestrol to the rat uterus cytoplasm estrogen receptor
The above activity was measured essentially as described in the literature [J. Biol. Chem., 258 (5), 3173 (1973) and Biochem. Pharmacol., 43 (12), 2511 (1992)].
Thus, the uterus was excised from female SD rats aged 3 to 4 weeks and homogenized in 6 volumes of TETG buffer (10 mM Tris-hydrochloride, 1 mM EDTA, 12 mM thioglycerol and 10% glycerol) and the homogenate was centrifuged to give a cytoplasm fraction. ^3 H-Moxestrol and each test compound were added to this cytoplasm fraction and each mixture was incubated at 4° C. for 16 hours to allow binding to the estrogen receptor in the cytoplasm fraction.
Then, the free form of ^3 H-moxestrol was removed by the DCC method and the bound form of ^3 H-moxestrol was quantitated using a liquid scintillation counter.
Moxestrol was used as a control compound and the relative binding affinity (RBA), which was defined as the ^3 H-moxestrol binding inhibiting effect (IC50) ratio, was determined as follows: [formula]
The thus-obtained RBA values for the respective test compounds are shown below in Table 21.

| RBA (relative binding affinity, 3H-moxestrol binding inhibiting effect (IC50) ratio) [%] | SMILES |
| --- | --- |
| 46 | Cc1c(-c2ccc(Sc3ccccc3)cc2)n(CCCCCCNC(C)C)c2ccc(O)cc12 [Example 161] |
| 44 | CSc1ccc(-c2c(C)c3cc(O)ccc3n2CCCCCCNC2CCCC2)cc1 [Example 172] |
| 60 | CSc1ccc(-c2c(C)c3cc(O)ccc3n2CCCCCCNC2CCC2)cc1 [Example 175, 1-(6-cyclobutylaminohexyl)-5-hydroxy-3-methyl-2-(4-methylthiophenyl)indole] |
| 64 | CSc1ccc(-c2c(C)c3cc(O)ccc3n2CCCCCCNC2CC2)cc1 [Example 176] |
| 57 | CSc1ccc(-c2c(C)c3cc(O)ccc3n2CCCCCCNC(C)(C)C)cc1 [Example 178] |
| 60 | CCC(C)NCCCCCCn1c(-c2ccc(SC)cc2)c(C)c2cc(O)ccc21 (stereo not drawn) [Example 179] |
| 52 | CSc1ccc(-c2c(C)c3cc(O)ccc3n2CCCCCCNCc2ccccc2)cc1 [Example 181] |
| 57 | CCC(C)(C)NCCCCCCn1c(-c2ccc(SC)cc2)c(C)c2cc(O)ccc21 [Example 182] |
| 50 | O=C(c1ccc(OCCN2CCCC2)cc1)n1c(-c2ccc(Sc3ccccc3)cc2)cc2cc(O)ccc21 [Example 234, 5-hydroxy-2-(4-phenylthiophenyl)-1-[4-{2-(1-pyrrolidinyl)ethoxy}benzoyl]indole] |
| 53 | O=C(c1ccc(OCCN2CCCCC2)cc1)n1c(-c2ccc(Sc3ccccc3)cc2)cc2cc(O)ccc21 [Example 236] |
| 49 | O=C(c1ccc(OCCCN2CCCC2)cc1)n1c(-c2ccc(Sc3ccccc3)cc2)cc2cc(O)ccc21 [Example 238] |
| 73 | O=C(c1ccc(OCCCN2CCCCC2)cc1)n1c(-c2ccc(Sc3ccccc3)cc2)cc2cc(O)ccc21 [Example 239] |
| 57 | O=C(c1ccc(OCCn2cncn2)cc1)n1c(-c2ccc(Sc3ccccc3)cc2)cc2cc(O)ccc21 [Example 246] |
| 94 | CSc1ccc(-c2c(C)c3cc(O)ccc3n2CCCCCCCC(=O)N(C)C)cc1 [Example 253] |
| 78 | CSc1ccc(-c2c(C)c3cc(O)ccc3n2CCCCCCCC(=O)NC2CCC2)cc1 [Example 254] |
| 41 | CSc1ccc(-c2c(C)c3cc(O)ccc3n2CCCCCCCC(=O)NC(C)(C)C)cc1 [Example 255] |
| 41 | CSc1ccc(-c2c(C)c3cc(O)ccc3n2CCCCCCCC(=O)N2CCCCC2)cc1 [Example 258] |
| 48 | CSc1ccc(-c2c(C)c3cc(O)ccc3n2CCCCCCCCN2CCOCC2)cc1 [Example 272] |
| 65 | CSc1ccc(-c2c(C)c3cc(O)ccc3n2CCCCCCCCNC(C)C)cc1 [Example 274] |
| 82 | CSc1ccc(-c2c(C)c3cc(O)ccc3n2CCCCCCCCN(C)C)cc1 [Example 279] |
| 116 | CSc1ccc(-c2c(C)c3cc(O)ccc3n2CCCCCCCCNC2CCC2)cc1 [Example 280] |
| 121 | CSc1ccc(-c2c(C)c3cc(O)ccc3n2CCCCCCCCN2CCCC2)cc1 [Example 281, 5-hydroxy-3-methyl-2-(4-methylthiophenyl)-1-[8-(1-pyrrolidinyl)octyl]indole] |
| 114 | CSc1ccc(-c2c(C)c3cc(O)ccc3n2CCCCCCCCNC(C)(C)C)cc1 [Example 282] |
| 93 | CSc1ccc(-c2c(C)c3cc(O)ccc3n2CCCCCCCCN2CCCCC2)cc1 [Example 285] |
| 51 | CCSc1ccc(-c2cc3cc(O)ccc3n2CCCCCCCCNC(C)C)cc1 [Example 286] |
| 70 | CSc1ccc(-c2c(C)c3cc(O)ccc3n2CCCCCCN2CCSC2)cc1 [Example 291] |
| 42 | CSc1ccc(-c2c(C)c3cc(O)ccc3n2CCCCCCNC(C)c2ccccc2)cc1 (stereo not drawn) [Example 312, 5-hydroxy-3-methyl-2-(4-methylthiophenyl)-1-[6-(1-phenylethyl)aminohexyl]indole] |
